{"source": "patent US6410537B1", "about": "“Compositions having neuroprotective and analgesic activity” (The United States of America as represented by the …, priority 1994, dated 2002)", "key": {"neuronal cell cultures": {"system": "neuronal cell cultures", "experiment": "Neuroprotection against glutamate toxicity in neuronal cell cultures, measured by LDH release", "type": "cell-based", "conditions": "for LDH release: mean ± s.e., 18 hours after glutamate exposure", "method": "(§1) One particularly valuable enantiomer of the invention is the (+)-8 compound designated SNC80. […] To obtain better understanding of the benefits obtained by use of the compounds of the invention, beneficial effects of the compound were assessed in a model for evaluation of CNS excito-toxicity in an in vitro neuronal culture model. The neurotoxicity/neuroprotection was assessed 18 hours after exposure to the excitotoxin glutamate.\nThe neuroprotective effect of the SNC80 against glutamate toxicity in neuronal cell cultures was determined using a standard method of quantifying neuronal damage by measuring LDH release, since LDH is a […] enzyme released from damaged neurons into the culture media when neuronal cells are injured. One way in which neuronal cells may be damaged is by exposure to glutamate, a common agent used to induce neuronal damage. In the instant case, the damaging effect of gluamate on these cultures as shown to be overcome by exposure to an active agent of the invention."}, "neurons": {"system": "neurons", "experiment": "Antagonism of glutamate neurotoxic calcium flux (intracellular calcium response type)", "type": "cell-based", "method": "as §1"}, "[1]": {"experiment": "Convulsive activity after intracerebral ventricular dosing", "type": "in vivo", "conditions": "rats; intracerebral ventricular dosages up to 800 μg"}, "[2]": {"conditions": "Glutamate (80 μM) + SNC80 20 μM"}, "[3]": {"conditions": "Glutamate (80 μM) + SNC80 40 μM"}}}
{"smiles": "C=CCN1C[C@H](C)N([C@H](c2ccc(C(=O)N(CC)CC)cc2)c2cccc(OC)c2)C[C@H]1C", "note": "[SNC80]", "values": [{"measurement": "Neuroprotection (LDH measurements and morphological evaluation)", "setting": "neuronal cell cultures; 18 hours after exposure to glutamate, compared to glutamate alone", "value": "concentration-dependent neuroprotection"}, {"measurement": "% neuroprotection", "setting": "neuronal cell cultures; Glutamate (80 μM) + SNC80 5 μM", "value": 17, "unit": "%"}, {"measurement": "LDH release", "setting": "neuronal cell cultures; Glutamate (80 μM) + SNC80 5 μM", "value": "98.6 ± 4.5", "unit": "Units ML"}, {"measurement": "% neuroprotection", "setting": "neuronal cell cultures; [2]", "value": 43, "unit": "%"}, {"measurement": "LDH release", "setting": "neuronal cell cultures; [2]", "value": "91.0 ± 2.0", "unit": "Units ML"}, {"measurement": "% neuroprotection", "setting": "neuronal cell cultures; [3]", "value": 63, "unit": "%"}, {"measurement": "LDH release", "setting": "neuronal cell cultures; [3]", "value": "84.7 ± 3.4", "unit": "Units ML"}, {"measurement": "Response Type biphasic (number of neurons)", "setting": "neurons; Glutamate + 50 μM, 10 neurons", "value": 6}, {"measurement": "Response Type sustained (neurotoxic) (number of neurons)", "setting": "neurons; Glutamate + 50 μM, 10 neurons", "value": 1}, {"measurement": "Response Type transient (number of neurons)", "setting": "neurons; Glutamate + 50 μM, 10 neurons", "value": 3}, {"measurement": "Response Type biphasic (number of neurons)", "setting": "neurons; Glutamate + 100 μM, 21 neurons", "value": 17}, {"measurement": "Response Type sustained (neurotoxic) (number of neurons)", "setting": "neurons; Glutamate + 100 μM, 21 neurons", "value": 1}, {"measurement": "Response Type transient (number of neurons)", "setting": "neurons; Glutamate + 100 μM, 21 neurons", "value": 3}, {"measurement": "Intracellular Ca++ concentration as indicator of glutamate-induced neuronal injury", "setting": "neurons; glutamate-treated neurons", "value": "beneficial shift in the intracellular Ca^++ concentration"}, {"measurement": "Convulsive activity", "setting": "[1]", "value": "failed to elicit convulsive activity"}]}
